Measurements as given in patent US20160113921A1, “COMBINATION THERAPY COMPRISING OXAZOLIDINONE-QUINOLONES FOR USE IN TREATING BACTERIAL INFECTIONS” (MORPHOCHEM AKTIENGESELLSCHAFT FÜR KOMBINATORISCHE CHEMIE, priority 2013, published 2016).
Read-outs that look alike come from different tables or passages of the source.

Key:
Format in all cases: cell-based
E. coli ATCC 25922 [1] = assay: Time-kill curves; conditions: E. coli ATCC25922; for growth- and kill rates k ('+' = growth, unmarked = kill rate): first four hours
E. coli NRZ-00401 = assay: Time-kill curves; conditions: E. coli NRZ00401; for growth- and kill rates k ('+' = growth, unmarked = kill rate): first four hours
E. coli NRZ-00302 = assay: Time-kill curves; conditions: E. coli NRZ00302; for growth- and kill rates k ('+' = growth, unmarked = kill rate): first four hours
[2] = test system: E. coli ATCC 25922, NRZ-00401, NRZ-00302 and GNS-2601; assay: Time-kill curves, statements on the four E. coli strains; conditions: one- or two-times MIC; four E. coli strains
[3] = test system: P. aeruginosa NRZ-00425 (VIM-2 β-lactamase); assay: microbe, parasite or virus in culture; conditions: checkerboard
Text: (§1) The checkerboard consists of columns in which each well contains the same amount of antibacterial A being over i dilutions along the x-axis, and in rows in which each well contains the same amount of antibacterial B over j dilutions on the y-axis, i.e. serial dilutions of antibacterials A and B, respectively, are titrated in a rectangular fashion.
(§2) The fractional inhibitory concentration (FIC) is a mathematical expression of the effect of the combination of two antibacterial agents A and B. The FICs were calculated as the MIC of antibacterial A and antibacterial B in combination divided by the MIC of antibacterial A or antibacterial B alone.
(§3) The FICs and FIC index, respectively, are calculated according to the following equations:
(§4) FIC(A)=MIC(A in the presence of B)/MIC(A alone)
(§5) FIC(B)=MIC(B in the presence of A)/MIC(B alone)
(§6) The checkerboard titrations were performed three times.

[4] = test system: E. cloacae NRZ-00239 (VIM-1 β-lactamase); assay: Checkerboard titration of Compound 1 and colistin
Text: as §1, §2, §3, §4, §5, §6

E. cloacae ATCC 13047 [5] = assay: Checkerboard titration of Compound 1 and colistin; conditions: checkerboard
Text: as §1, §2, §3, §4, §5, §6

E. coli ATCC 25922 [6] = assay: Checkerboard titration of Compound 1 and colistin
Text: as §1, §2, §3, §4, §5, §6

[7] = test system: P. aeruginosa NRZ-00425 (VIM-1); assay: MIC, broth microdilution (CLSI), CAMHB; conditions: monosubstance; Pa NRZ00425
In short: (§7)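 Broth microdilution MICs were set up immediately after the dilutions were prepared, with each test run in duplicate and repeated once on a separate occasion. Inoculum was a 1 mL bacterial suspension diluted into 10 mL CAMHB; for S. pneumoniae the broth carried 5% lysed horse blood. Growth was scored visually by turbidity.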

[8] = test system: E. cloacae NRZ-00239 (VIM-1); assay: MIC, broth microdilution (CLSI), CAMHB; conditions: monosubstance; Ecl NRZ00239
In short: as §7

P. mirabilis ATCC 9240 = assay: MIC, broth microdilution (CLSI), CAMHB; conditions: monosubstance; Pm ATCC9240
In short: as §7

E. cloacae ATCC 13047 [9] = assay: MIC, broth microdilution (CLSI), CAMHB; conditions: monosubstance; Ecl ATCC13047
In short: as §7

[10] = test system: K. pneumoniae NRZ-00535 (VIM-1); assay: MIC, broth microdilution (CLSI), CAMHB; conditions: monosubstance; Kp NRZ00535
In short: as §7

P. aeruginosa ATCC 10145 = assay: MIC, broth microdilution (CLSI), CAMHB; conditions: monosubstance; Pa ATCC10145
In short: as §7

[11] = test system: K. pneumoniae NRZ-00002 (OXA-48); assay: MIC, broth microdilution (CLSI), CAMHB; conditions: monosubstance; Kp NRZ00002
In short: as §7

[12] = test system: K. pneumoniae NRZ-00103 (KPC-2); assay: MIC, broth microdilution (CLSI), CAMHB; conditions: monosubstance; Kp NRZ00103
In short: as §7

[13] = test system: P. mirabilis NRZ-00185 (AmpC, type CMY-2); assay: MIC, broth microdilution (CLSI), CAMHB; conditions: monosubstance; Pm NRZ00185
In short: as §7

[14] = test system: E. coli NRZ-00401 (metallo β-lactamase VIM-1); assay: MIC, broth microdilution (CLSI), CAMHB; conditions: monosubstance; Ec NRZ00401
In short: as §7

E. coli ATCC 25922 [15] = assay: MIC, broth microdilution (CLSI), CAMHB; conditions: monosubstance; Ec ATCC25922
In short: as §7

K. pneumoniae ATCC 13883 = assay: MIC, broth microdilution (CLSI), CAMHB; conditions: monosubstance; Kp ATCC13883
In short: as §7

[16] = test system: E. coli NRZ-00302 (metallo β-lactamase NDM-1); assay: MIC, broth microdilution (CLSI), CAMHB; conditions: monosubstance; Ec NRZ00302
In short: as §7

[17] = test system: E. coli GNS-2601 (ESBL CTX-M-15); assay: MIC, broth microdilution (CLSI), CAMHB; conditions: monosubstance; Ec GNS2601
In short: as §7

[18] = test system: E. coli NRZ-00302 (NDM-1 β-lactamase); conditions: checkerboard
Text: as §1, §2, §3, §4, §5, §6

[19] = test system: K. pneumoniae NRZ-00535 (VIM-1 β-lactamase); conditions: checkerboard
Text: as §1, §2, §3, §4, §5, §6

E. coli GNS-2601 = assay: Time-kill curves; conditions: E. coli GNS2601; for growth- and kill rates k ('+' = growth, unmarked = kill rate): first four hours

Substance: colistin
- growth- and kill rates k ('+' = growth, unmarked = kill rate) (E. coli ATCC 25922 [1]; single agent at 1x its MIC): 0.86 h⁻¹
- growth- and kill rates k ('+' = growth, unmarked = kill rate) (E. coli ATCC 25922 [1]; single agent at 2x its MIC): 1.04 h⁻¹
- Viable counts at 8 h of exposure (E. coli ATCC 25922 [1]; single agent at 1x its MIC): 0 log10 CFU/mL
- Viable counts at 8 h of exposure (E. coli ATCC 25922 [1]; single agent at 2x its MIC): 0 log10 CFU/mL
- growth- and kill rates k ('+' = growth, unmarked = kill rate) (E. coli NRZ-00401; single agent at 1x its MIC): 2.46 h⁻¹
- growth- and kill rates k ('+' = growth, unmarked = kill rate) (E. coli NRZ-00401; single agent at 2x its MIC): 2.53 h⁻¹
- Viable counts at 8 h of exposure (E. coli NRZ-00401; single agent at 1x its MIC): 0 log10 CFU/mL
- Viable counts at 8 h of exposure (E. coli NRZ-00401; single agent at 2x its MIC): 0 log10 CFU/mL
- growth- and kill rates k ('+' = growth, unmarked = kill rate) (E. coli NRZ-00302; single agent at 1x its MIC): 1.63 h⁻¹
- growth- and kill rates k ('+' = growth, unmarked = kill rate) (E. coli NRZ-00302; single agent at 2x its MIC): 1.89 h⁻¹
- Viable counts at 8 h of exposure (E. coli NRZ-00302; single agent at 1x its MIC): 1.95 log10 CFU/mL
- Viable counts at 8 h of exposure (E. coli NRZ-00302; single agent at 2x its MIC): 0 log10 CFU/mL
- type of activity in time-kill [2]: bactericidal
- MIC (agent alone) [3]: 2 µg/mL
- MIC (agent alone) [4]: 1 µg/mL
- MIC (agent alone) ([4]; listed as col): 0.5 to 1 µg/mL
- MIC (agent alone) (E. cloacae ATCC 13047 [5]): 256 µg/mL
- MIC (agent alone) (E. coli ATCC 25922 [6]): 1 to 2 µg/mL
- MIC [7]: 1 µg/mL
- MIC [8]: 0.5 µg/mL
- MIC (P. mirabilis ATCC 9240): >256 µg/mL
- MIC (E. cloacae ATCC 13047 [9]): 64 µg/mL
- MIC [10]: 0.25 µg/mL
- MIC (P. aeruginosa ATCC 10145): 0.5 µg/mL
- MIC [11]: 0.25 µg/mL
- MIC [12]: 0.25 µg/mL
- MIC [13]: >256 µg/mL
- MIC [14]: 1 µg/mL
- MIC (E. coli ATCC 25922 [15]): 1 µg/mL
- MIC (K. pneumoniae ATCC 13883): 0.03 µg/mL
- MIC [16]: 1 µg/mL
- MIC [17]: 2 µg/mL
- MIC (agent alone) [18]: 0.5 to 1 µg/mL
- MIC (agent alone) [19]: 0.5 to 2 µg/mL
- growth- and kill rates k ('+' = growth, unmarked = kill rate) (E. coli GNS-2601; single agent at 1x its MIC): 1.55 h⁻¹
- growth- and kill rates k ('+' = growth, unmarked = kill rate) (E. coli GNS-2601; single agent at 2x its MIC): 1.80 h⁻¹
- Viable counts at 8 h of exposure (E. coli GNS-2601; single agent at 1x its MIC): 0 log10 CFU/mL
- Viable counts at 8 h of exposure (E. coli GNS-2601; single agent at 2x its MIC): 0 log10 CFU/mL
